Experiments:
mTORC1 (mTOR/GbL/Raptor) = mTORC1 (mTOR/GbL/Raptor) (Homo sapiens, UniProt P42345); experiment: mTOR/GbL/Raptor (mTORC1) ELISA Assay; assay type: biochemical; conditions: 0.2 nM mTORC1, 10 μM ATP, 50 nM NHis-tagged 4E-BP1; phosphorylation of 4E-BP1; read-out: IC50
Method in brief: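 mTORC1 (0.2 nM) phosphorylated NHis-tagged 4E-BP1 (50 nM) with 10 μM ATP in 20 mM Hepes pH 7.2, 10 mM MnCl2, for 120 min at ambient temperature. Product was captured on Ni-chelate plates and detected with anti-phospho-4E-BP1 plus HRP secondary antibody by chemiluminescence.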

PI3Kα = PI3Kα (Homo sapiens, UniProt P42336); experiment: PI3K Biochemical Assays (ATP consumption, luciferase-luciferin chemiluminescence); conditions: PI3Kα 1.5 nM, ATP 1 μM, PIP2 10 μM; percent of ATP consumed
Method: PI3Kα activity is measured as the percent of ATP consumed following the kinase reaction using luciferase-luciferin-coupled chemiluminescence. Reactions were conducted in 384-well white, medium binding microtiter plates (Greiner). Kinase reactions were initiated by combining test compounds, ATP, substrate (PIP2), and kinase in a 20 μL volume in a buffer solution. The standard PI3Kalpha assay buffer is composed 50 mM Tris, pH 7.5, 1 mM EGTA, 10 mM MgCl2, 1 mM DTT and 0.03% CHAPS. The standard assay concentrations for enzyme, ATP, and substrate are 1.5 nM, 1 μM, and 10 μM, respectively. The reaction mixture was incubated at ambient temperature for approximately 2 h. Following the kinase reaction, a 10 μL aliquot of luciferase-luciferin mix (Promega Kinase-Glo) was added and the chemiluminescence signal measured using a Victor2 plate reader (Perkin Elmer). Total ATP consumption was limited to 40-60% and IC50 values of control compounds correlate well with literature references. Substituting PI3Kα with PI3KIβ, […], or […], the inhibitory activity of the compounds for the other isoforms of I3K were measured.

Chain of PI3Kα (P42336 whole entry): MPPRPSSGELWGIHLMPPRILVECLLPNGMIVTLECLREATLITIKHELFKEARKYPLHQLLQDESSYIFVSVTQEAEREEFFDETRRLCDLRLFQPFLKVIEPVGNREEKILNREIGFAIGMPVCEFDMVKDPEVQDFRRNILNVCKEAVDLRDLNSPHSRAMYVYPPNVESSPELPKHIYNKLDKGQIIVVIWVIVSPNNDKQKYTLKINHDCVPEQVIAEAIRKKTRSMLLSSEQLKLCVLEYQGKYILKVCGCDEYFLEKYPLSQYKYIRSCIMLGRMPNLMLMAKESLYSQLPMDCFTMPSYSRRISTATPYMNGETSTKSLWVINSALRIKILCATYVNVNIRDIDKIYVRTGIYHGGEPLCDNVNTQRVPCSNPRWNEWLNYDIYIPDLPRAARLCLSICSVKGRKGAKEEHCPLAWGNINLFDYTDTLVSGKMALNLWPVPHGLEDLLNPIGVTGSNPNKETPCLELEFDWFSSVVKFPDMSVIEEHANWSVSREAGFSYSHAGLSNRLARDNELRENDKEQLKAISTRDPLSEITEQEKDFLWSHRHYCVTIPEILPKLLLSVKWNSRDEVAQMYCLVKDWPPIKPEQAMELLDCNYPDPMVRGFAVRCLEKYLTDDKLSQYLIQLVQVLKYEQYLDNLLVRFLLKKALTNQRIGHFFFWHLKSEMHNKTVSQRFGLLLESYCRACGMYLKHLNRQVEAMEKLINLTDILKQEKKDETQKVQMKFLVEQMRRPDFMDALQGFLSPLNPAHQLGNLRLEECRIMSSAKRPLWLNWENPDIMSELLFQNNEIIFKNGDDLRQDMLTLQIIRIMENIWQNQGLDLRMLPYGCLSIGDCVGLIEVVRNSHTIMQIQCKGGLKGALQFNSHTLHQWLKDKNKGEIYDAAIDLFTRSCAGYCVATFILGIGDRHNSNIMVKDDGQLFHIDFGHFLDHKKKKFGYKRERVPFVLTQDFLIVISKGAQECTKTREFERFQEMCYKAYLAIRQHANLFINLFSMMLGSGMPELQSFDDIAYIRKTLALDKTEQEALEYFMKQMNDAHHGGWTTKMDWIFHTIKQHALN
Chain of PI3Kα (P27986 whole entry partner): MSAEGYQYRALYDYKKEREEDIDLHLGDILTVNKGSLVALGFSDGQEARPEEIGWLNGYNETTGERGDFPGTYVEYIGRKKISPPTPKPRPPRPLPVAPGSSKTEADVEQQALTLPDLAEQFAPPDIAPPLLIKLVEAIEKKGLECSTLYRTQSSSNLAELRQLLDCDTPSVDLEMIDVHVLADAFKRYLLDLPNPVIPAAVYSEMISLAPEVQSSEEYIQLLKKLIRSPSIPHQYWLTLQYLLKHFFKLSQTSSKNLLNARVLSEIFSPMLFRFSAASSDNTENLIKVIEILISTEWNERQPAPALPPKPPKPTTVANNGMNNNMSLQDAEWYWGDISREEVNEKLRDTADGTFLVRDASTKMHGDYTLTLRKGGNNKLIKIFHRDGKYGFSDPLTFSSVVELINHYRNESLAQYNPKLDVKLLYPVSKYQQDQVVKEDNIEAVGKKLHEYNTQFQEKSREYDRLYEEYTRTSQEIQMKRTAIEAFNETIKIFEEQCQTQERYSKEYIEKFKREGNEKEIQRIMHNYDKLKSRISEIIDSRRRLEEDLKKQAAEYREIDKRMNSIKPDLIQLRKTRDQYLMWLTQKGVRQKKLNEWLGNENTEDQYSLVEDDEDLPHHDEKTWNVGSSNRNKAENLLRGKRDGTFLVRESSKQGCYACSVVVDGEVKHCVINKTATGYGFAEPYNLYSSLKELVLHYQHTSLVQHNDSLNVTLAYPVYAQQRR

SMILES | IC50 (mTORC1 (mTOR/GbL/Raptor)) | IC50 (PI3Kα)
COC1CCN(C(=O)N2CCOc3ccc(-c4ccc5nc(C)[nH]c5c4)cc3C2)CC1 [Compound 105, 7-(2-methyl-1H-benzimidazol-6-yl)-4-{[4-(methyloxy)piperidin-1-yl]carbonyl}-2,3,4,5-tetrahydro-1,4-benzoxazepine] | 50 to 250 nM | 500 to 1000 nM
Cc1nc2ccc(-c3ccc4c(c3)CN(C(=O)N3CCC(S(C)(=O)=O)CC3)CCO4)cc2[nH]1 [Compound 102, 7-(2-methyl-1H-benzimidazol-6-yl)-4-{[4-(methylsulfonyl)piperidin-1-yl]carbonyl}-2,3,4,5-tetrahydro-1,4-benzoxazepine] | 50 to 250 nM | 500 to 1000 nM
COC(=O)Nc1nc2ccc(-c3ccc4c(c3)CN(C(=O)N3CCC(C#N)CC3)CCO4)cc2[nH]1 [Compound 21, methyl (6-{4-[(4-cyanopiperidin-1-yl)carbonyl]-2,3,4,5-tetrahydro-1,4-benzoxazepin-7-yl}-1H-benzimidazol-2-yl)carbamate] | 50 to 250 nM | 75 to 200 nM
Cc1nc2ccc(-c3ccc4c(c3)CN(C(=O)N3CCC(c5noc(C6CC6)n5)CC3)CCO4)cc2[nH]1 [Compound 163, 4-{[4-(5-cyclopropyl-1,2,4-oxadiazol-3-yl)piperidin-1-yl]carbonyl}-7-(2-methyl-1H-benzimidazol-6-yl)-2,3,4,5-tetrahydro-1,4-benzoxazepine] | 250 to 700 nM | 1000 to 3000 nM
Cc1nc2ccc(-c3ccc4c(c3)CN(C(=O)N3CCN(c5ccccn5)CC3)CCO4)cc2[nH]1 [Compound 172, 7-(2-methyl-1H-benzimidazol-6-yl)-4-[(4-pyridin-2-ylpiperazin-1-yl)carbonyl]-2,3,4,5-tetrahydro-1,4-benzoxazepine] | 700 to 2600 nM | 200 to 500 nM
O=C(N1CCC(C(F)(F)F)CC1)N1CCOc2ccc(-c3ccc(-c4ncc[nH]4)cc3)cc2C1 [Compound 7, 7-[4-(1H-imidazol-2-yl)phenyl]-4-{[4-(trifluoromethyl)piperidin-1-yl]carbonyl}-2,3,4,5-tetrahydro-1,4-benzoxazepine] | ≤ 50 nM | ≤ 75 nM
COC(=O)Nc1nc2ccc(-c3ccc4c(c3)CN(C(=O)N3CCC(C(F)F)CC3)CCO4)cc2[nH]1 [Compound 19, methyl [6-(4-{[4-(difluoromethyl)piperidin-1-yl]carbonyl}-2,3,4,5-tetrahydro-1,4-benzoxazepin-7-yl)-1H-benzimidazol-2-yl]carbamate] | 50 to 250 nM | 200 to 500 nM
Cc1nc2ccc(-c3ccc4c(c3)CN(C(=O)N3CCC(C)(C(N)=O)CC3)CCO4)cc2[nH]1 [Compound 135, 4-methyl-1-{[7-(2-methyl-1H-benzimidazol-6-yl)-2,3-dihydro-1,4-benzoxazepin-4(5H)-yl]carbonyl}piperidine-4-carboxamide] | 50 to 250 nM | 1000 to 3000 nM
CCNc1nc2ncc(-c3ccc4c(c3)CN(C(=O)N3[C@@H]5CC[C@H]3C[C@](O)(C(F)(F)F)C5)CCO4)cc2[nH]1 [Compound 179, 8-({7-[2-(ethylamino)-1H-imidazo[4,5-b]pyridin-6-yl]-2,3-dihydro-1,4-benzoxazepin-4(5H)-yl}carbonyl)-3-(trifluoromethyl)-8-azabicyclo[3.2.1]octan-3-(endo)-ol] | ≤ 50 nM | ≤ 75 nM
CS(=O)(=O)Nc1cc(-c2ccc3c(c2)CN(C(=O)N2C4CCC2CC(O)(C(F)(F)F)C4)CCO3)cnc1Cl (centres unmarked) [Compound 181, N-[2-chloro-5-(4-{[3-hydroxy-3-(trifluoromethyl)-8-azabicyclo[3.2.1]oct-8-yl]carbonyl}-2,3,4,5-tetrahydro-1,4-benzoxazepin-7-yl)pyridin-3-yl]methanesulfonamide] | ≤ 50 nM | ≤ 75 nM
COC(=O)Nc1nc2ccc(-c3ccc4c(c3)CN(C(=O)N3C5CCC3CC(=O)C5)CCO4)cc2[nH]1 [Compound 25, methyl (6-{4-[(3-oxo-8-azabicyclo[3.2.1]oct-8-yl)carbonyl]-2,3,4,5-tetrahydro-1,4-benzoxazepin-7-yl}-1H-benzimidazol-2-yl)carbamate] | 50 to 250 nM | 200 to 500 nM
Cc1nc2ccc(-c3ccc4c(c3)CN(C(=O)N(C)Cc3ccccc3)CCO4)cc2[nH]1 [Compound 92, N-methyl-7-(2-methyl-1H-benzimidazol-6-yl)-N-(phenylmethyl)-2,3-dihydro-1,4-benzoxazepine-4(5H)-carboxamide] | 50 to 250 nM | 500 to 1000 nM
Cc1nc2ccc(-c3ccc4c(c3)CN(C(=O)N3CCC(Cc5ccc(Cl)cc5)CC3)CCO4)cc2[nH]1 [Compound 69, 4-({4-[(4-chlorophenyl)methyl]piperidin-1-yl}carbonyl)-7-(2-methyl-1H-benzimidazol-6-yl)-2,3,4,5-tetrahydro-1,4-benzoxazepine] | 50 to 250 nM | 1000 to 3000 nM
Nc1nc2ncc(-c3ccc4c(c3)CN(C(=O)N3CCC(CF)CC3)CCO4)cc2[nH]1 [Compound 45, 6-(4-{[4-(fluoromethyl)piperidin-1-yl]carbonyl}-2,3,4,5-tetrahydro-1,4-benzoxazepin-7-yl)-1H-imidazo[4,5-b]pyridin-2-amine] | ≤ 50 nM | ≤ 75 nM
N#CC1CCN(C(=O)N2CCOc3ccc(-c4cnc5nc(N)[nH]c5c4)cc3C2)CC1 [Compound 46, 1-{[7-(2-amino-1H-imidazo[4,5-b]pyridin-6-yl)-2,3-dihydro-1,4-benzoxazepin-4(5H)-yl]carbonyl}piperidine-4-carbonitrile] | ≤ 50 nM | ≤ 75 nM
COC(=O)Nc1nc2ncc(-c3ccc4c(c3)CN(C(=O)N3CCC(CF)CC3)CCO4)cc2[nH]1 [Compound 36, methyl [6-(4-{[4-(fluoromethyl)piperidin-1-yl]carbonyl}-2,3,4,5-tetrahydro-1,4-benzoxazepin-7-yl)-1H-imidazo[4,5-b]pyridin-2-yl]carbamate] | ≤ 50 nM | ≤ 75 nM
Cc1nc2ccc(-c3ccc4c(c3)CN(C(=O)N3CCC(F)(F)CC3)CCO4)cc2[nH]1 [Compound 67, 4-[(4,4-difluoropiperidin-1-yl)carbonyl]-7-(2-methyl-1H-benzimidazol-6-yl)-2,3,4,5-tetrahydro-1,4-benzoxazepine] | 250 to 700 nM | 1000 to 3000 nM

More lines, now with the values ahead:

IC50 (mTORC1 (mTOR/GbL/Raptor)) | IC50 (PI3Kα) | SMILES
≤ 50 nM | ≤ 75 nM | O=C1CCN(C(=O)N2CCOc3ccc(-c4ccc5[nH]c(NCCF)nc5c4)cc3C2)C(c2cccc(F)c2)C1 (centres unmarked) [Compound 32, 1-{[7-{2-[(2-fluoroethyl)amino]-1H-benzimidazol-5-yl}-2,3-dihydro-1,4-benzoxazepin-4(5H)-yl]carbonyl}-2-(3-fluorophenyl)piperidin-4-one]
50 to 250 nM | 200 to 500 nM | CC1=C[C@H]2CN(C(=O)N3CCOc4ccc(-c5ccc6[nH]c(C)nc6c5)cc4C3)C[C@H]2C1 (racemic) [Compound 91, (±)-7-(2-methyl-1H-benzimidazol-5-yl)-4-{[(3aS,6aR)-5-methyl-3,3a,4,6a-tetrahydrocyclopenta[c]pyrrol-2(1H)-yl]carbonyl}-2,3,4,5-tetrahydro-1,4-benzoxazepine]
≤ 50 nM | ≤ 75 nM | Cc1nc2ccc(-c3ccc4c(c3)CN(C(=O)N3CCCCC3c3cccc(F)c3)CCO4)cc2[nH]1 (centres unmarked) [Compound 81, 4-{[2-(3-fluorophenyl)piperidin-1-yl]carbonyl}-7-(2-methyl-1H-benzimidazol-6-yl)-2,3,4,5-tetrahydro-1,4-benzoxazepine]
≤ 50 nM | 200 to 500 nM | CCNc1nc2ccc(-c3ccc4c(c3)CN(C(=O)N3CCC(C(C)(F)F)CC3)CCO4)cc2[nH]1 [Compound 33, 6-(4-{[4-(1,1-difluoroethyl)piperidin-1-yl]carbonyl}-2,3,4,5-tetrahydro-1,4-benzoxazepin-7-yl)-N-ethyl-1H-benzimidazol-2-amine]
50 to 250 nM | 1000 to 3000 nM | Cc1nc2ccc(-c3ccc4c(c3)CN(C(=O)N3CCCC3Cc3ccccc3)CCO4)cc2[nH]1 (centres unmarked) [Compound 94, 7-(2-methyl-1H-benzimidazol-6-yl)-4-{[2-(phenylmethyl)pyrrolidin-1-yl]carbonyl}-2,3,4,5-tetrahydro-1,4-benzoxazepine]
250 to 700 nM | 500 to 1000 nM | Cc1nc2ccc(-c3ccc4c(c3)CN(C(=O)N3CCC(Cc5ccccc5)C3)CCO4)cc2[nH]1 (centres unmarked) [Compound 100, 7-(2-methyl-1H-benzimidazol-6-yl)-4-{[3-(phenylmethyl)pyrrolidin-1-yl]carbonyl}-2,3,4,5-tetrahydro-1,4-benzoxazepine]
≤ 50 nM | 75 to 200 nM | Cc1nc2ccc(-c3ccc4c(c3)CN(C(=O)N3CCCCC3c3cc(F)c(F)c(F)c3)CCO4)cc2[nH]1 (centres unmarked) [Compound 129, 7-(2-methyl-1H-benzimidazol-6-yl)-4-{[2-(3,4,5-trifluorophenyl)piperidin-1-yl]carbonyl}-2,3,4,5-tetrahydro-1,4-benzoxazepine]
50 to 250 nM | 200 to 500 nM | Cc1nc2ccc(-c3ccc4c(c3)CN(C(=O)N3C5CCC3c3ccccc35)CCO4)cc2[nH]1 [Compound 143, 9-{[7-(2-methyl-1H-benzimidazol-6-yl)-2,3-dihydro-1,4-benzoxazepin-4(5H)-yl]carbonyl}-1,2,3,4-tetrahydro-1,4-epiminonaphthalene]

From patent US8637499B2, “Benzoxazepines as inhibitors of PI3K/mTOR and methods of their use and manufacture” (Exelixis, Inc., priority 2009, dated 2014)
